Each block holds one substance with its values, some of them ahead of it.
Tests used:
[1] = target: Human GCN5 catalytic domain (residues 497-662) (human) (UniProt Q92830)
[2] = target: Human PCAF catalytic domain (residues 498-658) (human) (UniProt Q92831)
GCN5 (KAT2A) = target: T1, GCN5 (KAT2A) (Homo sapiens, UniProt Q92830); assay: MALDI-TOF MS enzymatic assay of GCN5-catalyzed acetylation of histone peptides; type: biochemical; settings: standard conditions: 2 µM GCN5, 100 µM peptide, 300 µM AcCoA, pH 8.0, 37 °C
T1 construct: Human GCN5 catalytic domain (residues 497–662 in pET28a-LIC vector); His-tag; host or cells: E. coli BL21(DE3)
Experimental: (§1) MALDI-TOF MS enzymatic assays were carried out to investigate KAT-catalyzed acetylation of synthetic histone peptides. The enzymatic activity of the recombinantly expressed human KATs was measured at different time points (2 µM KAT enzyme, 100 µM histone peptide, 300 µM AcCoA, buffer: 50 mM Hepes, 0.1 mM EDTA, 1 mM DTT, pH = 8.0, 37 °C, hereafter used as standard conditions) (Fig. 3b,c). […] As further control, H4 and H3 peptides containing stereochemically inverted D-lysine were synthesized.
(§2) The KAT enzymatic activity towards histone peptides was measured at different time points under standard conditions (2 µM KAT enzyme, 100 µM peptide, 300 µM AcCoA) in the reaction buffer (50 mM HEPES, 0.1 mM EDTA, 1 mM DTT, pH = 8.0). The reactions were carried out in a final volume of 50 µL and shaken up in a Thermomixer C at 750 rpm, at 37 °C. The reactions were quenched by the addition of TFA 10% in MilliQ water at different time points. All reactions were aliquoted and mixed 1:2 with a solution of α-Cyano-4-hydroxycinnamic acid (CHCCA) in 1:1 MQ and ACN (0.1% TFA) and loaded onto an MTP 384 polished steel target to be analyzed by a UltrafleXtreme-II tandem mass spectrometer (Bruker, Billerica, MA, USA).

PCAF (KAT2B) = target: T2, PCAF (KAT2B) (Homo sapiens, UniProt Q92831); assay: MALDI-TOF MS enzymatic assay of PCAF-catalyzed acetylation of histone peptides; type: biochemical; settings: standard conditions: 2 µM PCAF, 100 µM peptide, 300 µM AcCoA, pH 8.0, 37 °C
T2 construct: Human PCAF catalytic domain (residues 498–658 in pET16b vector); SNAP-tag; His-tag; made in house; host or cells: E. coli BL21(DE3)
Experimental: as §1, §2

PCAF catalytic domain = target: T3, PCAF catalytic domain (Homo sapiens, UniProt Q92831); assay: MALDI-TOF MS kinetics assay, PCAF; type: biochemical
T3 construct: Human PCAF catalytic domain (residues 498–658 in pET16b vector); SNAP-tag; His-tag; made in house; host or cells: E. coli BL21(DE3)
Description: (§3) Kinetic analysis of bi-substrate enzymes, such as KATs, is reckoned to be challenging and dependent on many factors. Firstly, given the nature of these enzymes, the binding of one of the two substrates directly influences the binding of the other (with a direct effect on the Michaelis–Menten parameter Km). […] Therefore, to obtain data that would allow us to directly compare the catalytic properties of the selected KATs towards our selection of histone peptides bearing lysine analogs with longer side chains, two strategies to standardize our kinetic evaluation were taken: i) all the experiments were carried out with the same saturating concentrations of AcCoA and ii) only KATs catalytic domains were employed in the study.
(§4) Histone peptides kinetics evaluation was carried out with a MALDI-TOF MS assay under steady-state conditions[57],[58]. Histone peptides (1,050–0 µM) were incubated with AcCoA (100 µM) and the reactions were started by the addition of the enzyme (MOF 570 nM, PCAF and GCN5 50 nM) in a final volume of 20 µL in kinetic buffer (50 mM HEPES, 0.1 mM EDTA, 0.01% TRITON-X, pH = 7.4). […] AcCoA stock solutions in milli-Q water were calibrated with a NanoDrop 2000 spectrophotometer (Thermo Scientific, Waltham, MA, USA), employing the characteristic molar extinction coefficient ε260nm = 16,400 M^−1 cm^−1. Reactions were incubated at 37 °C, shaken at 750 rpm and quenched with TFA 10% in milli-Q water at different time points, within linear production of acetylated peptides extrapolated from time-course plots. All reactions were aliquoted and mixed 1:2 with a solution of α-cyano-4-hydroxycinnamic acid (CHCCA) in 1:1 MQ and ACN (0.1% TFA) and loaded onto MTP 384 polished steel target to be analyzed by UltrafleXtreme-II tandem mass spectrometer (Bruker). The amount of acetylated peptide was calculated by integration of the product peak area and divided it by the amount of unacetylated peptide, taking in account all the ionic species, at any concentration points using the FlexAnalysis software. Kinetic values were extrapolated by fitting V0 values (µM of produced peptide per minutes) and histone peptide concentrations to the Michaelis–Menten equation using the GraphPad Prism 5 software. Kinetic experiments were carried out in duplicates and final values are reported as value ± SD.

GCN5 catalytic domain = target: T4, GCN5 catalytic domain (Homo sapiens, UniProt Q92830); assay: MALDI-TOF MS kinetics assay, GCN5; type: biochemical
T4 construct: Human GCN5 catalytic domain (residues 497–662 in pET28a-LIC vector); His-tag; host or cells: E. coli BL21(DE3)
Description: as §3, §4

[3] = target: Human GCN5 catalytic domain (residues 497-662) (human) (UniProt Q92830); remark: listed apart in the source
[4] = target: Human PCAF catalytic domain (residues 498-658) (human) (UniProt Q92831); remark: listed apart in the source

Sequence of Human PCAF catalytic domain (residues 498-658) (human) (Q92831 498-658): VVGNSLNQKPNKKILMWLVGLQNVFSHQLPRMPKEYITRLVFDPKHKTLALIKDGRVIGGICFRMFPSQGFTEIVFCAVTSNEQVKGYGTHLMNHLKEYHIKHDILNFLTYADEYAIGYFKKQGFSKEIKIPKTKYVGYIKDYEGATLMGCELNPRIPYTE
T3 sequence (Q92831 498-658): as above
Sequence of Human GCN5 catalytic domain (residues 497-662) (human) (Q92830 497-662): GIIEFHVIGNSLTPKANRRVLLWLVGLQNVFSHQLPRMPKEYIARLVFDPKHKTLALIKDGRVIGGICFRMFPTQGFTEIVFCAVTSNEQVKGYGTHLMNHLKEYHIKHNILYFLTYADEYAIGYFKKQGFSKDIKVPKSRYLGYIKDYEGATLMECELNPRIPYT
T4 sequence (Q92830 497-662): as above
T2 sequence (Q92831 498-658): as the sequence (Q92831 498-658) above
T1 sequence (Q92830 497-662): as the sequence (Q92830 497-662) above

- Km^app of GCN5-catalyzed acetylation (MALDI-TOF MS kinetics, steady state, saturating AcCoA, 37 °C, pH 7.4) [1]: 995 μM
- Km^app of PCAF-catalyzed acetylation (MALDI-TOF MS kinetics, steady state, saturating AcCoA, 37 °C, pH 7.4) [2]: 727 μM
Substance: H3K14 histone peptide (H3 residues 3-17, K9 acetylated)

Substance: ARTKQTAR h3K9STGGK Ac A [H3h3K9, 15-mer histone H3 peptide (K14ac) with h3K at position 9]
- substrate for GCN5-catalyzed acetylation (in words) (GCN5 (KAT2A); 3 h, MALDI-TOF MS): No acetylation was observed within limits of detection
- substrate for PCAF-catalyzed acetylation (in words) (PCAF (KAT2B); 3 h, MALDI-TOF MS): No acetylation was observed within limits of detection

Substance: TKQTARK Ac STGG K14 APR [H3K14, 15-mer H3 peptide, residues 3–17, synthetically acetylated K9, reference compound]
- time to quantitative acetylation by GCN5 (GCN5 (KAT2A)): 15 min
- kcat^app (PCAF catalytic domain; PCAF catalytic domain 50 nM (2 µM for unnatural analogs), peptide 1,050–0 µM, AcCoA 100 µM (saturating), 50 mM HEPES, 0.1 mM EDTA, 0.01% TRITON-X, pH 7.4, 37 °C, MALDI-TOF MS, duplicates, value ± SD, SD): 6.07 ± 0.02 s⁻¹
- Km (PCAF catalytic domain; PCAF catalytic domain 50 nM (2 µM for unnatural analogs), peptide 1,050–0 µM, AcCoA 100 µM, pH 7.4, 37 °C, MALDI-TOF MS, duplicates, value ± SD, SD, read-out: Km^app): 727 ± 95 µM
- kcat^app/Km^app (PCAF catalytic domain; PCAF, same kinetics conditions): 8330 M⁻¹ s⁻¹
- time to quantitative acetylation by PCAF (PCAF (KAT2B)): 15 min
- kcat^app/Km^app (GCN5 catalytic domain; GCN5, same kinetics conditions): 5930 M⁻¹ s⁻¹
- kcat^app (GCN5 catalytic domain; GCN5 catalytic domain 50 nM (2 µM for unnatural analogs), peptide 1,050–0 µM, AcCoA 100 µM (saturating), 50 mM HEPES, 0.1 mM EDTA, 0.01% TRITON-X, pH 7.4, 37 °C, MALDI-TOF MS, duplicates, value ± SD, SD): 5.9 ± 0.035 s⁻¹
- Km (GCN5 catalytic domain; GCN5 catalytic domain 50 nM (2 µM for unnatural analogs), peptide 1,050–0 µM, AcCoA 100 µM, pH 7.4, 37 °C, MALDI-TOF MS, duplicates, value ± SD, SD, read-out: Km^app): 995 ± 198 µM

- Km^app of PCAF-catalyzed acetylation (MALDI-TOF MS kinetics, steady state, saturating AcCoA, 37 °C, pH 7.4) [2]: 179 μM
Substance: H3h2K9 histone peptide (H3 residues 1-15, K14 acetylated, h2K at position 9)

- IC50 of inhibition of GCN5-catalyzed acetylation of the H3K14 peptide (single point, 100 µM of each peptide, 1 h, 37 °C, MALDI-TOF MS; residual activity greater than 50%) [3]: > 100 µM
- IC50 of inhibition of PCAF-catalyzed acetylation of the H3K14 peptide (single point, 100 µM of each peptide, 1 h, 37 °C, MALDI-TOF MS; residual activity greater than 50%) [4]: > 100 µM
Substance: H3K*14 histone peptide containing h4K at position 14 (H3 residues 3-17, K9 acetylated)

- IC50 of inhibition of GCN5-catalyzed acetylation of the H3K9 peptide (single point, 100 µM of each peptide, 1 h, 37 °C, MALDI-TOF MS; residual activity greater than 50%) [3]: > 100 µM
- IC50 of inhibition of PCAF-catalyzed acetylation of the H3K9 peptide (single point, 100 µM of each peptide, 1 h, 37 °C, MALDI-TOF MS; residual activity greater than 50%) [4]: > 100 µM
Substance: H3K*9 histone peptide containing h4K at position 9 (H3 residues 1-15, K14 acetylated)

- IC50 of inhibition of GCN5-catalyzed acetylation of the H3K14 peptide (single point, 100 µM of each peptide, 1 h, 37 °C, MALDI-TOF MS; residual activity greater than 50%) [3]: > 100 µM
- IC50 of inhibition of PCAF-catalyzed acetylation of the H3K14 peptide (single point, 100 µM of each peptide, 1 h, 37 °C, MALDI-TOF MS; residual activity greater than 50%) [4]: > 100 µM
Substance: H3K*14 histone peptide containing Dab at position 14 (H3 residues 3-17, K9 acetylated)
